Experimental findings from patent publication US7414051B2, “Substituted-dihydro[1,4]oxazino[2,3,4-hi]indazole derivatives as 5-hydroxytryptamine-6 ligands” (Wyeth, priority 2006, dated 2008) are described below.

The target in series [1] is T1, human cloned 5-HT6 receptors (Homo sapiens, UniProt P50406).
T1 construct: expressed in transfected cells; host or cells: HeLa cells
Briefly: 5-HT6 binding affinity, [3H]-LSD displacement, membranes of Hela cells expressing human cloned 5-HT6 receptors. As for the experimental part:
The affinity of test compounds for the serotonin 5-HT6 receptor was evaluated in the following manner. Cultured Hela cells expressing human cloned 5-HT6 receptors were harvested and centrifuged at low speed (1,000×g) for 10.0 minutes to remove the culture media. The harvested cells were suspended in half volume of fresh physiological phosphate buffered saline solution and recentrifuged at the same speed. This operation was repeated. The collected cells were then homogenized in ten volumes of 50 mM Tris.HCl (pH 7.4) and 0.5 mM EDTA. The homogenate was centrifuged at 40,000×g for 30.0 min and the precipitate was collected. The obtained pellet was resuspended in 10 volumes of Tris.HCl buffer and recentrifuged at the same speed. The final pellet was suspended in a small volume of Tris.HCl buffer and the tissue protein content was determined in aliquots of 10-25 μl volumes. Bovine Serum Albumin was used as the standard in the protein determination according to the method described in Lowry et al., J. Biol. Chem., 193: 265 (1951). The volume of the suspended cell membranes was adjusted to give a tissue protein concentration of 1.0 mg/ml of suspension. The prepared membrane suspension (10 times concentrated) was aliquoted in 1.0 ml volumes and stored at −70° C. until used in subsequent binding experiments.
Binding experiments were performed in a 96 well microtiter plate format, in a total volume of 200 μl. […] The test compounds were added in 20.0 μl volume.
The reaction was allowed to proceed in the dark for 120 minutes at room temperature, at which time, the bound ligand-receptor complex was filtered off on a 96 well unifilter with a Packard Filtermate® 196 Harvester. The bound complex caught on the filter disk was allowed to air dry and the radioactivity is measured in a Packard TopCount® equipped with six photomultiplier detectors, after the addition of 40.0 μl Microscint®-20 scintillant to each shallow well. The unifilter plate was heat-sealed and counted in a PackardTopCount® with a tritium efficiency of 31.0%.
Binding in the presence of varying concentrations of test compound was expressed as a percentage of specific binding in the absence of test compound. The results were plotted as log % bound versus log concentration of test compound. […] A linear regression line of data points was plotted, from which the IC50 value is determined and the Ki value is determined based upon the following equation: Ki=IC50/(1+L/KD) where L was the concentration of the radioactive ligand used and KD is the dissociation constant of the ligand for the receptor, both expressed in nM.

Counter-ions that a name gives are not always drawn.

T1 sequence (P50406 whole entry): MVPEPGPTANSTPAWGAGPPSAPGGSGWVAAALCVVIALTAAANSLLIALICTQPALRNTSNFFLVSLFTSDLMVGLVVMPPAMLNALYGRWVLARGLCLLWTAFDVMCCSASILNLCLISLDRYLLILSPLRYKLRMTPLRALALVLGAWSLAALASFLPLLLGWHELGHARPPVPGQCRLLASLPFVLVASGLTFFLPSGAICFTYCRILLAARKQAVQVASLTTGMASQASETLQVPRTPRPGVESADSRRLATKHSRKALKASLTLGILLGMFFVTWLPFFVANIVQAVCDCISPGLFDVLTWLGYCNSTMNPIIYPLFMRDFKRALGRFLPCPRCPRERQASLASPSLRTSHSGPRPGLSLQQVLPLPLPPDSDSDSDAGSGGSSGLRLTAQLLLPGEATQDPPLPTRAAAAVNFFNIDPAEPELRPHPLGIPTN

The term Ki denotes the dissociation constant of the complex between target and ligand, obtained from inhibition or displacement. A higher Ki goes with weaker binding. A word on the melting point: it is the temperature of the solid-liquid transition. `O=S(=O)(c1cccc2ccccc12)c1nn2c3c(cc(OCCN4CCCCC4)cc13)OCC2` [Example 14, 6-(1-Naphthylsulfonyl)-8-(2-piperidin-1-ylethoxy)-2,3-dihydro[1,4]oxazino[2,3,4-hi]-indazole]: the melting point was in the range of 90 to 92 °C. This molecule also displayed an inhibitory constant (Ki) in series [1] of 26 nM.
For `O=S(=O)(c1cccc2ccccc12)c1nn2c3c(cc(OCCN4CCCC4)cc13)OCC2` [Example 15, 6-(1-Naphthylsulfonyl)-8-(2-pyrrolidin-1-ylethoxy)-2,3-dihydro[1,4]oxazino[2,3,4-hi]-indazole], in that order: 127 to 129 °C and 14 nM.
In series [1], `CN1CCN(c2cc3c4c(c2)c(S(=O)(=O)c2cccc5ccccc25)nn4CCO3)CC1` [Example 6, 8-(4-Methylpiperazin-1-yl)-6-(1-naphthylsulfonyl)-2,3-dihydro[1,4]oxazino[2,3,4-hi]indazole Hydrochloride] yielded a Ki of 1 nM.
The same measure, in the same setting: under `CN(C)CCOc1cc2c3c(c1)c(S(=O)(=O)c1cccc4ccccc14)nn3CCO2` [Example 13, N,N-Dimethyl-2-{[6-(1-naphthylsulfonyl)-2,3-dihydro[1,4]oxazino[2,3,4-hi]indazol-8-yl]oxy}ethanamine] stands 7.9 nM.
On the same count and under the same terms, in the case of `CNCCOc1cc2c3c(c1)c(S(=O)(=O)c1cccc4ccccc14)nn3CCO2` [Example 12, N-methyl-2-{[6-(1-naphthylsulfonyl)-2,3-dihydro[1,4]oxazino[2,3,4-hi]indazol-8-yl]oxy}ethanamine Hydrochloride] it was 5.1 nM.
The molecule `CN1CCN(c2cc3c4c(c2)c(S(=O)(=O)c2cccc5ccccc25)nn4CCO3)CC1` (as salt: hydrochloride) [Example 6, 8-(4-Methylpiperazin-1-yl)-6-(1-naphthylsulfonyl)-2,3-dihydro[1,4]oxazino[2,3,4-hi]indazole Hydrochloride] yielded a melting point of over 225 °C.
